Experimental data published in ChEMBL document CHEMBL3232788, “1-(2-Hydroxy-2-methyl-3-phenoxypropanoyl)indoline-4-carbonitrile derivatives as potent and tissue selective androgen receptor modulators” (J Med Chem, 2014).
pEC50, pIC50: −log10 of the molar value. Values after ≈ are worked out from the molar mass of the structure shown. Active and inactive are the calls of the source. The calls are words filed in the database; no cut-off is given here.

Experiments:
Cytochrome P450 3A4 = Cytochrome P450 3A4 (Homo sapiens, UniProt P08684); experiment: Inhibition of CYP3A4 (unknown origin) at 3 uM; type: ADME
Chain of Cytochrome P450 3A4 (P08684 whole entry): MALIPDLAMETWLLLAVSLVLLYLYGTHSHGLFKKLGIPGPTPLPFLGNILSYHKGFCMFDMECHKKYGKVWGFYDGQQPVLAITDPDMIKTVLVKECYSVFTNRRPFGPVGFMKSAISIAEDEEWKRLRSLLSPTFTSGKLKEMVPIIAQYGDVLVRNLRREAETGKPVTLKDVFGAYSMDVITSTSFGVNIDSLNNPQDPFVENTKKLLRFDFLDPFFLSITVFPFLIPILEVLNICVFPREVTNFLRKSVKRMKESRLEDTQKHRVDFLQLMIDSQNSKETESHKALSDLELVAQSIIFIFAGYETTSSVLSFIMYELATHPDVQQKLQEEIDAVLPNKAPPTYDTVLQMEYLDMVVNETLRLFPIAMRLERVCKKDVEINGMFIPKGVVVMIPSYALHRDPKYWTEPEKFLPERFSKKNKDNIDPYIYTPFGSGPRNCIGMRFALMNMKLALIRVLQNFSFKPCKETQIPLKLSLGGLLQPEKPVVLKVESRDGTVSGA

Rattus norvegicus [1] = experiment: Increase in prostate tissue weight in orchidectomized Sprague-Dawley rat at 3 to 30 mg/kg, sc qd for 4 days relative to vehicle-treated control; type: ADME, organism-based, Prostate gland; set-up: dose 3-30 mg/kg, route subcutaneous; conditions: in vivo, 96 h
Rattus norvegicus [2] = experiment: Toxicity in Sprague-Dawley rat assessed as effect on serum total cholesterol level at 3 to 100 mg/kg, sc qd for 14 days relative to vehicle-treated control; type: organism-based; set-up: dose 3-100 mg/kg, route subcutaneous; conditions: in vivo, 336 h
[3] = Tmax in Sprague-Dawley rat at 10 mg/kg, sc; type: ADME, organism-based; set-up: dose 10 mg/kg, route subcutaneous; conditions: in vivo
Androgen receptor [4] = molecular target: T1, Androgen receptor (Homo sapiens, UniProt P10275); experiment: Agonist activity at human AR expressed in CV1 cells after 17 hrs by luciferase reporter gene assay; type: cell-based, CV-1
T1 sequence (P10275 whole entry): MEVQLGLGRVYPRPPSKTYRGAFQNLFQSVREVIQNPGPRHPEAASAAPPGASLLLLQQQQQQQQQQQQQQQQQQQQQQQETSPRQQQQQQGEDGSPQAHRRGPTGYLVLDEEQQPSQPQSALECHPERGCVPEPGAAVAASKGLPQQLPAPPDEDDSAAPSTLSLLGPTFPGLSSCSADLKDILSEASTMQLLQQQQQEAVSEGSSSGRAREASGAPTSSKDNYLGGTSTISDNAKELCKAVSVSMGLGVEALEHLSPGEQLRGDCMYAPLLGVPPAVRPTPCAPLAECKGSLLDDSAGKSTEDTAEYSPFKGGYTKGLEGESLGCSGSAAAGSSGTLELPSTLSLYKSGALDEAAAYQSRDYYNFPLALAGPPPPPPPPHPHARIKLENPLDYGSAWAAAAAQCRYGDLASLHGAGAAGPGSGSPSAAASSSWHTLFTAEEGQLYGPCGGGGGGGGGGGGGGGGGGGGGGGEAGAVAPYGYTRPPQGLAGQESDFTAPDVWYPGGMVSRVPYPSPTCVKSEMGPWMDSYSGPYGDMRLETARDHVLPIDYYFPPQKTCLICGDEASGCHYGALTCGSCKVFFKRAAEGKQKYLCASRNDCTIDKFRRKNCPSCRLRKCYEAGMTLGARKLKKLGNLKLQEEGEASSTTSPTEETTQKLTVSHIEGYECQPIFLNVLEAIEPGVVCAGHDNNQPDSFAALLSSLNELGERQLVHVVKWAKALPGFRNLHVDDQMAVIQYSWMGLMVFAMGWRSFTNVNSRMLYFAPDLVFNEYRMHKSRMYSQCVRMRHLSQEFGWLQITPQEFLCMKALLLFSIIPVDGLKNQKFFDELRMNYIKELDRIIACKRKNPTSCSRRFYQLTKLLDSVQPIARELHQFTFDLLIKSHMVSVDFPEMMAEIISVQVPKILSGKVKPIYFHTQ

Rattus norvegicus [5] = experiment: Toxicity in Sprague-Dawley rat assessed as effect on serum triglyceride level at 3 to 100 mg/kg, sc qd for 14 days relative to vehicle-treated control; type: organism-based; set-up: dose 3-100 mg/kg, route subcutaneous; conditions: in vivo, 336 h
Rattus norvegicus [6] = experiment: Toxicity in Sprague-Dawley rat assessed as effect on serum HDL level at 3 to 100 mg/kg, sc qd for 14 days relative to vehicle-treated control; type: organism-based; set-up: dose 3-100 mg/kg, route subcutaneous; conditions: in vivo, 336 h
[7] = Cmax in Sprague-Dawley rat at 10 mg/kg, sc; type: ADME, organism-based; set-up: dose 10 mg/kg, route subcutaneous; conditions: in vivo
[8] = molecular target: Voltage-gated inwardly rectifying potassium channel KCNH2 (Homo sapiens, UniProt Q12809); experiment: Binding affinity to human ERG by dofetilide binding assay
Chain of Voltage-gated inwardly rectifying potassium channel KCNH2 (Q12809 whole entry): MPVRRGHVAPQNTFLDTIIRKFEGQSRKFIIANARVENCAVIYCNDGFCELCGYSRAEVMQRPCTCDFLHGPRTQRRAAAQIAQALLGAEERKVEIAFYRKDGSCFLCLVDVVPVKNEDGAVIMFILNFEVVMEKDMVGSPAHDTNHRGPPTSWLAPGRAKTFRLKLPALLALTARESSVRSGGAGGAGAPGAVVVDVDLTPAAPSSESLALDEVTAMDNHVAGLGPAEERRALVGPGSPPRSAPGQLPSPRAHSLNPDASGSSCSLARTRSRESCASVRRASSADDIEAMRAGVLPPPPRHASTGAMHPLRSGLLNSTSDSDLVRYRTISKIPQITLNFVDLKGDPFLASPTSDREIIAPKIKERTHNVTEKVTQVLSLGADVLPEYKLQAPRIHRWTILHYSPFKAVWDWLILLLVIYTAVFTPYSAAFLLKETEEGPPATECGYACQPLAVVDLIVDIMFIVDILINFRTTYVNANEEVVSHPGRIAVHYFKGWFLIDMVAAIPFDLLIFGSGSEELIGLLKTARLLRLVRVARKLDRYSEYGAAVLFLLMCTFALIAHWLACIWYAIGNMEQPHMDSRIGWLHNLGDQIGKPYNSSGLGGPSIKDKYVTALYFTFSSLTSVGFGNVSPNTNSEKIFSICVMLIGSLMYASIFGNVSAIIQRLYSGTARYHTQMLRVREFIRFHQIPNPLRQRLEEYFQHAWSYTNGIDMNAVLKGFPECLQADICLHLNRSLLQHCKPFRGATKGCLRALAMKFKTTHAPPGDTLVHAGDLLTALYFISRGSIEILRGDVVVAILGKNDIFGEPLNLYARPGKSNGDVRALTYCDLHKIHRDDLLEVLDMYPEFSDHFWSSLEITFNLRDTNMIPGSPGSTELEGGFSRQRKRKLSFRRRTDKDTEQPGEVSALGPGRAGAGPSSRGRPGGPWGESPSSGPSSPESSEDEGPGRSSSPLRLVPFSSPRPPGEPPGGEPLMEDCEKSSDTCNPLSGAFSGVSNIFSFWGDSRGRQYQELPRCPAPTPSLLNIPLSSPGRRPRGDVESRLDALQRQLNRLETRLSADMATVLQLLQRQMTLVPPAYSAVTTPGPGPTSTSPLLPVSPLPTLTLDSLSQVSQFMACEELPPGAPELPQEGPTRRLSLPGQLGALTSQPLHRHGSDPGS

[9] = Cmax in Sprague-Dawley rat at 6 mg/kg, po; type: ADME, organism-based; set-up: dose 6 mg/kg, route oral; conditions: in vivo
Androgen receptor [10] = molecular target: T1, Androgen receptor; experiment: Displacement of [3H]mibolerone from full length human AR expressed in COS cells after 3.5 hrs by liquid scintillation counting; type: cell-based
[11] = Cytotoxicity against human THLE cells; type: cell-based
Cytochrome P450 2C8 = molecular target: T2, Cytochrome P450 2C8 (Homo sapiens, UniProt P10632); experiment: Inhibition of CYP2C8 (unknown origin) at 3 uM; type: ADME
T2 sequence (P10632 whole entry): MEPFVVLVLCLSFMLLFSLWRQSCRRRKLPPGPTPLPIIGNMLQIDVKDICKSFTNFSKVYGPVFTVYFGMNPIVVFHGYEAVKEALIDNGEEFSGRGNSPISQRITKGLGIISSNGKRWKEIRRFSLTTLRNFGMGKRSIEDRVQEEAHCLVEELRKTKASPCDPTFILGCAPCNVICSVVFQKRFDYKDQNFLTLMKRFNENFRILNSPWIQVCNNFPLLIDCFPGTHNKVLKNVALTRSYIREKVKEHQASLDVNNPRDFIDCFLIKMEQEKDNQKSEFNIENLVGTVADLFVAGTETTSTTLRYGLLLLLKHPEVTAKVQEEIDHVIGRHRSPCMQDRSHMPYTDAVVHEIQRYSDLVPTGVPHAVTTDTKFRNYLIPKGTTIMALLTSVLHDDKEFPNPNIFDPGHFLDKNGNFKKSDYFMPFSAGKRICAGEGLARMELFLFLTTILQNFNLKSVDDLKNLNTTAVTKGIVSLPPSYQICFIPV

[12] = Half life in Sprague-Dawley rat at 2 mg/kg, iv; type: ADME, organism-based; set-up: dose 2 mg/kg, route intravenous; conditions: in vivo
[13] = Oral bioavailability in Sprague-Dawley rat at 6 mg/kg; type: ADME, organism-based; conditions: in vivo
Rattus norvegicus [14] = experiment: Toxicity in Sprague-Dawley rat assessed as effect on serum luteinizing hormone level at 3 to 10 mg/kg, sc qd for 14 days relative to vehicle-treated control; type: organism-based; set-up: dose 3-10 mg/kg, route subcutaneous; conditions: in vivo, 336 h
Androgen receptor [15] = molecular target: T1, Androgen receptor; experiment: Binding affinity to human AR NTD (1 to 561 aa) expressed in CV1 cells coexpressing human AR-LBD (644-919 aa) assessed as N/C-termini interaction by androgenic assay; type: cell-based, CV-1
[16] = Aqueous solubility of the compound at pH 6.5; type: physicochemical
Cytochrome P450 2D6 = Cytochrome P450 2D6 (Homo sapiens, UniProt P10635); experiment: Inhibition of CYP2D6 (unknown origin) at 3 uM; type: ADME
Chain of Cytochrome P450 2D6 (P10635 whole entry): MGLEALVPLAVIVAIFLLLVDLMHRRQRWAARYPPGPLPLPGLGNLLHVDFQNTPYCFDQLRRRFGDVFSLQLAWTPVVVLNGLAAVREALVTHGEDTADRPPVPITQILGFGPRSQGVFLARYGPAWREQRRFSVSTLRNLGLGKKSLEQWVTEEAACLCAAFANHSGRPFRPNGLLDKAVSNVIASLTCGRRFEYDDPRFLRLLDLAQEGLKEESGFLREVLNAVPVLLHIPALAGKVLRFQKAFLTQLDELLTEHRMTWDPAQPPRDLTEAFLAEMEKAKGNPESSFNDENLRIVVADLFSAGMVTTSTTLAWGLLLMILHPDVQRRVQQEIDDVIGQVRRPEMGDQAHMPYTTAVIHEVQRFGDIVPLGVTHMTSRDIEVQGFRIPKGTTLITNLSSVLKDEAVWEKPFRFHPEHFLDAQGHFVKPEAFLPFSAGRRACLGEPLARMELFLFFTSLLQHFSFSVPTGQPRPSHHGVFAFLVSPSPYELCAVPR

Rattus norvegicus [17] = experiment: Toxicity in Sprague-Dawley rat assessed as effect on serum LDL level at 3 to 100 mg/kg, sc qd for 14 days relative to vehicle-treated control; type: organism-based; set-up: dose 3-100 mg/kg, route subcutaneous; conditions: in vivo, 336 h
[18] = Clearance in human liver microsomes; type: ADME; conditions: read-out: CLH
[19] = AUC in Sprague-Dawley rat at 2 mg/kg, iv; type: ADME, organism-based; set-up: dose 2 mg/kg, route intravenous; conditions: plasma
[20] = Toxicity in sc dosed Sprague-Dawley rat administered qd for 14 days; type: organism-based; conditions: in vivo
Rattus norvegicus [21] = experiment: Toxicity in Sprague-Dawley rat assessed as effect on serum luteinizing hormone level at 100 mg/kg, sc qd for 14 days relative to vehicle-treated control; type: organism-based; set-up: dose 100 mg/kg, route subcutaneous; conditions: in vivo, 336 h
[22] = Tmax in Sprague-Dawley rat at 6 mg/kg, po; type: ADME, organism-based; set-up: dose 6 mg/kg, route oral; conditions: in vivo
[23] = Volume of distribution at steady state in Sprague-Dawley rat at 2 mg/kg, iv; type: ADME, organism-based; set-up: dose 2 mg/kg, route intravenous; conditions: in vivo, read-out: Vdss
[24] = AUC in Sprague-Dawley rat at 10 mg/kg, sc; type: ADME, organism-based; set-up: dose 10 mg/kg, route subcutaneous; conditions: plasma
Cytochrome P450 1A2 = molecular target: T3, Cytochrome P450 1A2 (Homo sapiens, UniProt P05177); experiment: Inhibition of CYP1A2 (unknown origin) at 3 uM; type: ADME
T3 sequence (P05177 whole entry): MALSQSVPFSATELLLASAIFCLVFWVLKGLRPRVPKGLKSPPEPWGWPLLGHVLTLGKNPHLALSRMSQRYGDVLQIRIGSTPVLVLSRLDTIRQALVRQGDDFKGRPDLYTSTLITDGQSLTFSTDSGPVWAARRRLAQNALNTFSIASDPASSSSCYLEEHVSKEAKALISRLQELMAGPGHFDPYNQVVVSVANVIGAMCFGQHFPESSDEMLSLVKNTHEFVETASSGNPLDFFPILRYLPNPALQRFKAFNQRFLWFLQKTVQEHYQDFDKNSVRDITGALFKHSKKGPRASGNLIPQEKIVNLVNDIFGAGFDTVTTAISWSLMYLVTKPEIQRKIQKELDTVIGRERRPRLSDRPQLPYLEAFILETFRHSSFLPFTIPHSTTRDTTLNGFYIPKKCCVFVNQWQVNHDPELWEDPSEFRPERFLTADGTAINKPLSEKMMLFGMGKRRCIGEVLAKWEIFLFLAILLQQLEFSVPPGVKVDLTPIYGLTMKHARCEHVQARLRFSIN

Rattus norvegicus [25] = experiment: Increase in levator ani muscle weight in orchidectomized Sprague-Dawley rat at 3 to 30 mg/kg, sc qd for 4 days relative to vehicle-treated control; type: functional, organism-based
[26] = Half life in Sprague-Dawley rat at 6 mg/kg, po; type: ADME, organism-based; set-up: dose 6 mg/kg, route oral; conditions: in vivo
Cytochrome P450 2C9 = Cytochrome P450 2C9 (Homo sapiens, UniProt P11712); experiment: Inhibition of CYP2C9 (unknown origin) at 3 uM; type: ADME
Chain of Cytochrome P450 2C9 (P11712 whole entry): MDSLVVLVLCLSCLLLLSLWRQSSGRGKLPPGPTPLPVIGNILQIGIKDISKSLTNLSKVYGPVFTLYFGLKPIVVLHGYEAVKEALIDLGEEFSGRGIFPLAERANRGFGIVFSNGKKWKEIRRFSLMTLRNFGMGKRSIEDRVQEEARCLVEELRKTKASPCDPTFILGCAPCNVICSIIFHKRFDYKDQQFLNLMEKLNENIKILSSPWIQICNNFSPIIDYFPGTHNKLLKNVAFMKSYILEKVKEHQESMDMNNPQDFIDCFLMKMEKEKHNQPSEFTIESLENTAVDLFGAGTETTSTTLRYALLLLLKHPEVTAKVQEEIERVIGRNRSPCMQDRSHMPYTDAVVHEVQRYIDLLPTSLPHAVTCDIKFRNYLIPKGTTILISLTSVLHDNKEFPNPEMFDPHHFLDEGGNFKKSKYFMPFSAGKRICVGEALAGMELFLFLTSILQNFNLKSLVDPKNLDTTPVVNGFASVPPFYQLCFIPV

[27] = AUC in Sprague-Dawley rat at 6 mg/kg, po; type: ADME, organism-based; set-up: dose 6 mg/kg, route oral; conditions: plasma
[28] = Half life in Sprague-Dawley rat at 10 mg/kg, sc; type: ADME, organism-based; set-up: dose 10 mg/kg, route subcutaneous; conditions: in vivo
[29] = Bioavailability in Sprague-Dawley rat at 10 mg/kg, sc; type: ADME, organism-based; conditions: in vivo
Rattus norvegicus [30] = experiment: Increase in seminal vesicle weight in orchidectomized Sprague-Dawley rat at 3 to 30 mg/kg, sc qd for 4 days relative to vehicle-treated control; type: ADME, organism-based; set-up: dose 3-30 mg/kg, route subcutaneous; conditions: in vivo, 96 h

C[C@](O)(COc1ccc(F)cc1)C(=O)N1CCc2c(C#N)cccc21
inhibition (INH) (Cytochrome P450 3A4): Not Active
Activity (Rattus norvegicus [1]): Non-toxic
Activity (Rattus norvegicus [2]): Non-toxic
Tmax [3]: 4 h
pEC50 (Androgen receptor [4]): 8.60
Activity (Rattus norvegicus [5]): Non-toxic
Activity (Rattus norvegicus [6]): Non-toxic
Cmax [7]: 166 ng/mL
pIC50 [8]: < 4.00
Cmax [9]: 254 ng/mL
pIC50 (Androgen receptor [10]): 7.90
pIC50 [11]: < 3.52
inhibition (INH) (Cytochrome P450 2C8): Not Active
half-life [12]: 5 h
bioavailability [13]: > 100%
Activity (Rattus norvegicus [14]): Non-toxic
pEC50 (Androgen receptor [15]): < 5.00
solubility [16]: 14 µM (≈ 4.76 µg/mL)
inhibition (INH) (Cytochrome P450 2D6): Not Active
Activity (Rattus norvegicus [17]): Non-toxic
microsomal CLint [18]: 21 µL/min/mg
AUC [19]: 1100 ng·h/mL
MTD at 336 h [20]: 100 mg/kg
Activity (Rattus norvegicus [21]): Non-toxic
Tmax [22]: 8 h
Vd [23]: 6 L/kg
AUC [24]: 2030 ng·h/mL
inhibition (INH) (Cytochrome P450 1A2): Not Active
Activity (Rattus norvegicus [25]): Active
half-life [26]: 5 h
inhibition (INH) (Cytochrome P450 2C9): Not Active
AUC [27]: 3750 ng·h/mL
half-life [28]: 6 h
bioavailability [29]: 37%
Activity (Rattus norvegicus [30]): Non-toxic
